Where a name gives a salt, the structure may show the parent alone. Read-outs that look alike come from different tables or passages of the source.
Columns and labels:
Assay type in all cases: cell-based
[1] = target: T1, human EGFR exon 20 H773_V774insNPH (Homo sapiens, UniProt P00533, INS773NPH); experiment: EGFR Exon20 NPH insertion cellular phosphorylation inhibition (MSD pEGFR Y1068/total EGFR); details: Ba/F3 EGFR NPH ins cells, 4 h compound, p-EGFR(Y1068)/total EGFR;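 note: IL3-independent Ba/F3 cells with constitutively phosphorylated EGFR, compound exposure at 37 °C under 5% CO2, electrochemiluminescent MSD measurement of the p-EGFR to total EGFR ratio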
T1 construct: host or cells: Ba/F3
T1 sequence (P00533 with tags, fused parts or gaps INS773NPH): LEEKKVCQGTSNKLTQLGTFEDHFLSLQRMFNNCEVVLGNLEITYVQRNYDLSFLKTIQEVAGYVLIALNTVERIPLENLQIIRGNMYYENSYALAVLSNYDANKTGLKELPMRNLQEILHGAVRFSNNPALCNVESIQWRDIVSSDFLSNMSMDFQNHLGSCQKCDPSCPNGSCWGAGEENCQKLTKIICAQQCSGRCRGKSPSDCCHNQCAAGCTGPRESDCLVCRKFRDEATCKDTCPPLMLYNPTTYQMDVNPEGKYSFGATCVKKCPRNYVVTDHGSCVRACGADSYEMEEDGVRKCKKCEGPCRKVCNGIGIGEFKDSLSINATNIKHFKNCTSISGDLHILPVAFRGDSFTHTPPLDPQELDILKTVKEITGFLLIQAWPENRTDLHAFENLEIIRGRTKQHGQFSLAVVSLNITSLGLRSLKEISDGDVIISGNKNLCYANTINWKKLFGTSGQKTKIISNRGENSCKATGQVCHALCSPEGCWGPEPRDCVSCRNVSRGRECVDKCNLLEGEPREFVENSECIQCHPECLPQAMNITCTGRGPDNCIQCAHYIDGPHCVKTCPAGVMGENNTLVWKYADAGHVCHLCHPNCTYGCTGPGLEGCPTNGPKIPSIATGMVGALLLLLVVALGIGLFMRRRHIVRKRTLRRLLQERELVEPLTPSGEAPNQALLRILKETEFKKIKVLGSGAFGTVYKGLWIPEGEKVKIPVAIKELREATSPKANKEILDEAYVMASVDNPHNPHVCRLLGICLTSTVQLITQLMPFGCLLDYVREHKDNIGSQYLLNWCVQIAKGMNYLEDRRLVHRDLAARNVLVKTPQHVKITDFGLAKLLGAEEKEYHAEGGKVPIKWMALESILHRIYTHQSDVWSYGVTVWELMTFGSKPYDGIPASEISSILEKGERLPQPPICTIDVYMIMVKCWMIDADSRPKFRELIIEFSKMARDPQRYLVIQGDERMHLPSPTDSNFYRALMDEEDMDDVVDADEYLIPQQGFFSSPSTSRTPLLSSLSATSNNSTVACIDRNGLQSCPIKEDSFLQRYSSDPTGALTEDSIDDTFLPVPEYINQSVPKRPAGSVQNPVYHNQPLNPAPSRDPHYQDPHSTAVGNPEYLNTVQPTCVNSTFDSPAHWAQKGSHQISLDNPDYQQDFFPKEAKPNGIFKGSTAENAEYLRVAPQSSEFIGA

[2] = target: T2, human EGFR exon 20 V769_D770insASV (Homo sapiens, UniProt P00533, INS769ASV); experiment: EGFR Exon20 ASV insertion cellular phosphorylation inhibition (MSD pEGFR Y1068/total EGFR); details: Ba/F3 EGFR ASV ins cells, 4 h compound, p-EGFR(Y1068)/total EGFR;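 note: electrochemiluminescent readout on an MSD SECTOR Imager, IL3-independent transduced cells in medium with 1% FBS, compound concentration series at 37 °C and 5% CO2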
T2 construct: expressed in transfected cells; host or cells: Ba/F3 (DSMZ ACC-300), lentiviral transduction, puromycin selection, IL3 depletion

EGFR L858R&T790M = target: T3, EGFR L858R&T790M (Homo sapiens, UniProt P00533, L858R/T790M); experiment: EGFR L858R and T790M cellular phosphorylation inhibition in NCI-H1975 (MSD); details: NCI-H1975 cells, 4 h compound, p-EGFR(Y1068)/total EGFR; read-out: EGFR L858R and T790M mutation IC50;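 note: phosphorylated and total EGFR detected by electrochemiluminescence, cells exposed to compound in medium containing 1% FBS at 37 °C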
T3 construct: host or cells: NCI-H1975
T3 sequence (P00533 25-1210 T790M/L858R): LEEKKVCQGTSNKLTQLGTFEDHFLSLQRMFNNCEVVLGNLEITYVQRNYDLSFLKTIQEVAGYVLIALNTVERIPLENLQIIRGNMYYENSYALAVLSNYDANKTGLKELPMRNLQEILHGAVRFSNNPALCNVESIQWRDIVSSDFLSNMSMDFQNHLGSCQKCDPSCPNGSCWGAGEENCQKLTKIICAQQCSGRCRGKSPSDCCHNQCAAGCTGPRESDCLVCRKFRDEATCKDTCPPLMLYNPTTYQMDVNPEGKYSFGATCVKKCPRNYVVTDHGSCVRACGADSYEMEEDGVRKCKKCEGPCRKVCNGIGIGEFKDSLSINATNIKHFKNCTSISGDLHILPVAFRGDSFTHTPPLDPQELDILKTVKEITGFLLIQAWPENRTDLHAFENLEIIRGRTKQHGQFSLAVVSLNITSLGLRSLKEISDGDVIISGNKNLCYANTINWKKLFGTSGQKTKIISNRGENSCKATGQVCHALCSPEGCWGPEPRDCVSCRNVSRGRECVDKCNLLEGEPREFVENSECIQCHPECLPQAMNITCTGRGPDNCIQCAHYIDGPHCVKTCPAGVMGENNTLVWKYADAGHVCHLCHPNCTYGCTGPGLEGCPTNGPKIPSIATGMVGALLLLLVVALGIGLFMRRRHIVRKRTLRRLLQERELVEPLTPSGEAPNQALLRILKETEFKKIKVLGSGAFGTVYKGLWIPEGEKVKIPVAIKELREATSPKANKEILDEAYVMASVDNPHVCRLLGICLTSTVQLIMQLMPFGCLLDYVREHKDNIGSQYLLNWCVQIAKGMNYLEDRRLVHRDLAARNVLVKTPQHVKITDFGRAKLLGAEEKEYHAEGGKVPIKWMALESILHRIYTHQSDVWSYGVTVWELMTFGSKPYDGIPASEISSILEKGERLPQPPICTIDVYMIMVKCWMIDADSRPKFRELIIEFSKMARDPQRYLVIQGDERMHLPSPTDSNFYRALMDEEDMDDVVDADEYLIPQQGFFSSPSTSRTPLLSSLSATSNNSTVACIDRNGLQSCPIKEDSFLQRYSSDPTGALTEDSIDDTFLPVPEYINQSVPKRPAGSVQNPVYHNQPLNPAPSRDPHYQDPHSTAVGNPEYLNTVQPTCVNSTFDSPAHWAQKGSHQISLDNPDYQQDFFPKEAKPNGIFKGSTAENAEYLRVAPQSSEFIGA

[3] = target: T4, human Her2 exon 20 insertion mutation YVMA (Homo sapiens, UniProt P04626, INS775YVMA); experiment: Her2 Exon 20 YVMA insertion cellular phosphorylation inhibition (MSD p-Her2 Y1248/total Her2); details: Her2 YVMAins cells, 4 h compound;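 note: lentivirally transduced NIH-3T3 cells in 1% FBS medium, electrochemiluminescent MSD read-out, graded compound concentrations at 37 °C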
T4 construct: expressed in transfected cells; host or cells: NIH-3T3, lentiviral transduction, puromycin selection
T4 sequence (P04626 with tags, fused parts or gaps INS775YVMA): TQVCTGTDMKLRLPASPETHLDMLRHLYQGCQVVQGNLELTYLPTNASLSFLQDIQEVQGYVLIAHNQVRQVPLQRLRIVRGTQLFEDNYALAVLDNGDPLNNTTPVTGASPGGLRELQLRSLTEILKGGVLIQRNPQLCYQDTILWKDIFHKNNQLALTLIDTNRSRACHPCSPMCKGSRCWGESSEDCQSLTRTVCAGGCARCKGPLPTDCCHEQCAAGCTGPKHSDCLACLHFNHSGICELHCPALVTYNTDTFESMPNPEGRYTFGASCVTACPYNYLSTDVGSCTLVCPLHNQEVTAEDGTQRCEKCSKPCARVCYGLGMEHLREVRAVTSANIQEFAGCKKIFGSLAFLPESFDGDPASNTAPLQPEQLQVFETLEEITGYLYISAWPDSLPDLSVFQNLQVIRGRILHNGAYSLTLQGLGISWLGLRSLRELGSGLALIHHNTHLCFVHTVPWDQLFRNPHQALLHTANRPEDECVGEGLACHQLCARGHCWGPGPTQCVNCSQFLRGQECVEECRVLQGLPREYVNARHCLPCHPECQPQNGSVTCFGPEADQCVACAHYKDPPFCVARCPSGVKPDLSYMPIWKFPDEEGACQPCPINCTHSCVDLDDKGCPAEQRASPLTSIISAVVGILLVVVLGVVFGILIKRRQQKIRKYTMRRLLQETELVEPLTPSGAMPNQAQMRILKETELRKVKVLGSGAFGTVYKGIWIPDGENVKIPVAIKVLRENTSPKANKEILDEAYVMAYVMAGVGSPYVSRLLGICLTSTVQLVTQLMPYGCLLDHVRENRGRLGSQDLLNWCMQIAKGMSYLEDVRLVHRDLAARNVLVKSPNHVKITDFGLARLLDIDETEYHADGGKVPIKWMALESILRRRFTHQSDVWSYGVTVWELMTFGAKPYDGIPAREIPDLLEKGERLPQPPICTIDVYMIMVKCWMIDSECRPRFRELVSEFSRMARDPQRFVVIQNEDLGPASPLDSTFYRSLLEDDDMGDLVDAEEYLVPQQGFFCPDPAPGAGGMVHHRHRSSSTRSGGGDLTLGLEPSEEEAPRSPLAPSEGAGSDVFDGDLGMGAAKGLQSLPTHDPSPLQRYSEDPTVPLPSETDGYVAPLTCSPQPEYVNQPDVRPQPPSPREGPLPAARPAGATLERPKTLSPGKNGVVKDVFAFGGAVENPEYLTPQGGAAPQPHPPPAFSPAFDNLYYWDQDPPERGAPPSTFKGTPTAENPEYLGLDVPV

WT EGFR = target: T5, WT EGFR (Homo sapiens, UniProt P00533); experiment: WT EGFR cellular phosphorylation inhibition in A-431 (hEGF stimulated, MSD); details: A431 cells, 4 h compound, then 100 ng/ml hEGF 10 min;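 note: electrochemiluminescence read-out of EGFR Tyr1068 phosphorylation expressed as ratio to total EGFR, cells kept in medium with 1% FBS, compounds tested as a concentration series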
T5 construct: host or cells: A-431
T5 sequence (P00533 25-1210): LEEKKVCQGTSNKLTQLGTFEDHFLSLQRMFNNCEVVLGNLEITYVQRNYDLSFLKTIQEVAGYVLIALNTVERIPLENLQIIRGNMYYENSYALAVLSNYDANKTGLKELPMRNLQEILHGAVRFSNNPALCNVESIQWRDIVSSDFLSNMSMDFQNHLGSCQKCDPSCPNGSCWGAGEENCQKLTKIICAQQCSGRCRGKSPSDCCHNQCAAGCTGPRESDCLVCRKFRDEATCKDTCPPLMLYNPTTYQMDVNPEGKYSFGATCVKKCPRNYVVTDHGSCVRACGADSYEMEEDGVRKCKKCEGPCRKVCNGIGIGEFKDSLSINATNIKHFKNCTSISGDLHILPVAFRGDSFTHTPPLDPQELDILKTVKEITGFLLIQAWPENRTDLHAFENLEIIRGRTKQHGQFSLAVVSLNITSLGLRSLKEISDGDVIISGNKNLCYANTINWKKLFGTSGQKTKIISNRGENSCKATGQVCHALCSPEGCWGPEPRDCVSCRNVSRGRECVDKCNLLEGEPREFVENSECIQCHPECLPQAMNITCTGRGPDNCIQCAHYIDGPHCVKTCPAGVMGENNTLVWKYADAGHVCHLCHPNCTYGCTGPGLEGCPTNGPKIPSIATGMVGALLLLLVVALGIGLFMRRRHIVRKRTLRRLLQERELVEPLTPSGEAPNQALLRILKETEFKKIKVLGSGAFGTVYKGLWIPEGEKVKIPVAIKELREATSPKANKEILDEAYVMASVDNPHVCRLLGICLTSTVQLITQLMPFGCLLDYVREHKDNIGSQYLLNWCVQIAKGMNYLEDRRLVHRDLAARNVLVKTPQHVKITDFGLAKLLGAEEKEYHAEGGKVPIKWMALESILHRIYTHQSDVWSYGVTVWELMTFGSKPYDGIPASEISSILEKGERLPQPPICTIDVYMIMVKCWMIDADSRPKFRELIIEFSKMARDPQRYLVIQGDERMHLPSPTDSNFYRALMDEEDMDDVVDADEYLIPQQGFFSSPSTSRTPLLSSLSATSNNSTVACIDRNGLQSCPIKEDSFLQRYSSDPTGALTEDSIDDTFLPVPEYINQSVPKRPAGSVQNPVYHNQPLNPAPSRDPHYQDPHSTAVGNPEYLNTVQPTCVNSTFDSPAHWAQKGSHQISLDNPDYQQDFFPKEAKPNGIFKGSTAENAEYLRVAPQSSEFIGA

Ba/F3 EGFR NPH ins cells = experiment: Cell proliferation, Ba/F3 EGFR NPH ins (CellTiter-Glo, 72 h); details: Ba/F3 EGFR, 72 h;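 note: IL3-independent cells carrying constitutively phosphorylated EGFR, compound dilution series, viable cells quantified by ATP luminescence, growth relative to DMSO wells after subtracting pre-dosing (day 0) baseline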
Ba/F3 EGFR ASV ins cells = experiment: Cell proliferation, Ba/F3 EGFR ASV ins (CellTiter-Glo, 72 h); details: Ba/F3 EGFR, 72 h;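 note: IL3-independent Ba/F3 cells transduced with EGFR V769_D770insASV, cellular ATP luminescence after compound exposure, growth relative to DMSO control with the day-0 baseline reading subtracted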
[4] = test system: NCI-H1975 EGFR L858R/T790M cells; experiment: Cell proliferation, NCI-H1975 EGFR L858R/T790M (CellTiter-Glo, 72 h); details: Homo sapiens, NCI-H1975, 72 h;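 note: viable cells quantified by luciferase-based ATP luminescence, proliferation expressed relative to DMSO-treated wells (100%) after subtracting a parallel plate read at the time of dosing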
Procedure: WT or mutant cells were seeded in 384 well plates at appropriate concentrations with corresponding growth media supplemented with 10% FBS, for each experiment, identical plates were prepared in duplicates, and the plates were incubated overnight. On the next day, one of each duplicated plates was dosed with tested compounds at a series of concentrations, and another one of the duplicated plate was analysied for G0 value. The dosed plates were incubate for another 72 h at 37° C. with 5% CO2 and the number of viable cells in each well of the G0 plates or the dosed plates were measured by CellTiter-Glo® Luminescent Cell Viability Assay (Promega). This assay is a luminescent method for determining the number viable cells through measurement of cellular ATP concentration by detection of luciferase activity. Detection reagents (15 µl) was dispensed into per well, and the plates were incubate for 30 min at room temperature. Then, the luminescence in each well was measured using the Envision plate reader (PerkinElmer). The percentage of proliferation was calculated based on the formula: %Proliferation= 100 × (G3 value of sample well-Go value)/(G3 value of DMSO control-Go value).

[5] = test system: Her2 exon 20 insertion YVMA transduced NIH-3T3 cell line; experiment: Cell proliferation, Her2 YVMAins NIH-3T3 (CellTiter-Glo, 72 h); details: Mus musculus, NIH3T3, 72 h, Her2 YVMAins cells, 72 h proliferation; read-out: Her2 Exon 20 YVMA insertion GI50;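 note: viable cells quantified by ATP luminescence, growth over a day-zero baseline plate expressed as percent of DMSO control growth, compound dilution series in 10% FBS medium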
WT EGFR cell line A-431 = experiment: Cell proliferation, WT EGFR A431 (CellTiter-Glo, 72 h); details: Homo sapiens, A-431, 72 h;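 note: proliferation from a luminescent ATP viability signal, expressed as 100 × (treated minus time-zero plate) over (DMSO control minus time-zero plate), cells grown with 10% FBS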
OCI-LY-10 cells = experiment: BTK (wt) cell proliferation, OCI-LY-10 (CellTiter-Glo, 72 h); details: Homo sapiens, OCI-Ly10, 72 h, OCI-LY-10 cells, 72 h, CellTiter-Glo; read-out: BTK WT OCI-LY-10 GI50;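 note: viable cells quantified via cellular ATP luminescence, proliferation given as percent of DMSO control after subtracting a duplicate plate read at time of dosing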
TMD-8 cells = experiment: BTK (wt) cell proliferation, TMD-8 (CellTiter-Glo, 72 h); details: Homo sapiens, TMD8, 72 h, TMD-8 cells, 72 h, CellTiter-Glo; read-out: BTK WT TMD-8 GI50;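 note: viable cells quantified by ATP-based luminescence, proliferation expressed as percent of DMSO control after subtracting a time-zero baseline plate read at dosing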
Ri-1 cells = experiment: BTK (wt) cell proliferation, Ri-1 (CellTiter-Glo, 72 h); details: Ri-1, 72 h, Ri-1 cells, 72 h, CellTiter-Glo; read-out: BTK WT Ri-1 GI50;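 note: viable cells quantified as cellular ATP luminescence, proliferation normalized to a time-zero plate and the DMSO control, compounds tested across a dilution series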
DB cells = experiment: BTK (wt) cell proliferation, DB (CellTiter-Glo, 72 h); details: Homo sapiens, DB, DB cells, CellTiter-Glo, read-out: Non-BCR activated DB GI50;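 note: DB cells in 384-well plates given a dilution series of compound, viable cells read by ATP luminescence, growth expressed versus DMSO control after subtracting a time-zero plate reading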
[6] = Ba/F3 EGFR NPH ins, 72 h proliferation, read-out: EGFR Exon20 NPH insertion GI50
[7] = Ba/F3 EGFR ASV ins, 72 h proliferation, read-out: EGFR Exon20 ASV insertion GI50
[8] = NCI-H1975, 72 h proliferation, read-out: EGFR L858R and T790M mutation GI50
[9] = A431, 72 h proliferation, read-out: EGFR WT A431 GI50

Row | Structure (SMILES) | IC50 [1] [nM] | IC50 [2] [nM] | IC50 (EGFR L858R&T790M) [nM] | IC50 [3] [nM] | IC50 (WT EGFR) [nM] | GI50 (Ba/F3 EGFR NPH ins cells; [6]) [nM] | GI50 (Ba/F3 EGFR ASV ins cells; [7]) [nM] | GI50 [4, 8] [nM] | GI50 [5] [nM] | GI50 (WT EGFR cell line A-431; [9]) [nM] | GI50 (OCI-LY-10 cells) [nM] | GI50 (TMD-8 cells) [nM] | GI50 (Ri-1 cells) [nM] | GI50 (DB cells) [nM] | GI50 (Ba/F3 EGFR NPH ins cells; read-out: EGFR Exon20 NPH insertion GI50 (nM)) [nM] | GI50 (Ba/F3 EGFR ASV ins cells; read-out: EGFR Exon20 ASV insertion GI50 (nM)) [nM] | GI50 ([4]; read-out: EGFR L858R and T790M mutation GI50 (nM)) [nM] | GI50 (WT EGFR cell line A-431; read-out: EGFR WT A431 GI50 (nM)) [nM]
1 | C=CC(=O)Nc1cc(Nc2ncnc(Nc3cc(Cl)c(F)cc3C(C)(O)CC)n2)c(OC)cc1N1CCC[C@@H]1CN(C)C (stereo partly drawn) [Compound 63, N-(5-(4-(5-chloro-4-fluoro-2-(2-hydroxybutan-2-yl)phenylamino)-1,3,5-triazin-2-ylamino)-2-((R)-2-((dimethylamino)methyl)pyrrolidin-1-yl)-4-methoxyphenyl)acrylamide] | 5.9 | 6.4 | 0.4 | 1.4 | 14.3 | 17.2 | 13.6 | 1.1 | 23.6 | 4.4 | 63.3 | 11.6 | 14.9 | > 3000 |  |  |  | 
2 | C=CC(=O)Nc1cc(Nc2ncnc(Nc3ccccc3C(C)(O)C(F)(F)F)n2)c(OC)cc1N(C)CCN(C)C (stereo not shown) [Compound 66, N-(2-((2-(dimethylamino)ethyl)(methyl)amino)-4-methoxy-5-(4-(2-(1,1,1-trifluoro-2-hydroxypropan-2-yl)phenylamino)-1,3,5-triazin-2-ylamino)phenyl) acrylamide] | 20.8 | 9.6 | 0.6 | 8.2 | 23.6 | 22.6 | 25.4 | 2.3 | 29.1 | 14.9 | > 3000 | 582 | > 3000 | > 3000 |  |  |  | 
3 | C=CC(=O)Nc1cc(Nc2ncnc(Nc3cc(Cl)c(F)cc3C(C)(O)CC)n2)c(OC)cc1N(C)CCN(C)C (stereo not shown) [Compound 67, N-(5-(4-(5-chloro-4-fluoro-2-(2-hydroxybutan-2-yl)phenylamino)-1,3,5-triazin-2-ylamino)-2-((2-(dimethylamino)ethyl)(methyl)amino)-4-methoxyphenyl)acrylamide] | 13.6 | 10.1 | 0.6 | 4.3 | 26.6 | 32.8 | 21.9 | 2.5 | 46.3 | 18.7 | 20.4 | 16 | 47.9 | > 3000 |  |  |  | 
4 | C=CC(=O)Nc1cc(Nc2nccc(Nc3cc(Cl)c(Cl)cc3C(C)(C)O)n2)c(OC)cc1N1CC[C@@H]1CN(C)C [Compound 71, (R)-N-(5-(4-(4,5-dichloro-2-(2-hydroxypropan-2-yl)phenylamino)pyrimidin-2-ylamino)-2-(2-((dimethylamino)methyl)azetidin-1-yl)-4-methoxyphenyl)a crylamide] | 51 | 31.1 | 1.3 | 19.6 | 213 | 74.7 | 89.8 | 8.3 | 86.2 | 34.9 | 12.4 | 4.8 | 23.5 | 2950 |  |  |  | 
5 | C=CC(=O)Nc1cc(Nc2ncnc(Nc3cc(Cl)c(F)cc3C3(O)CCC3)n2)c(OC)cc1N(C)CCN(C)C [Compound 72, N-(5-(4-(5-chloro-4-fluoro-2-(1-hydroxycyclobutyl)phenylamino)-1,3,5-triazin-2-ylamino)-2-((2-(dimethylamino)ethyl)(methyl)amino)-4-methoxyphenyl)acrylamide formic acid salt] | 18.7 | 8 | 0.6 | 8.9 | 26.2 |  |  |  | 38.9 |  | 2.9 | 7.3 | 33.3 | > 3000 | 46.1 | 42.3 | 4.1 | 10.4
6 | C=CC(=O)Nc1cc(Nc2ncc(Cl)c(Nc3cc(Cl)c(F)cc3C(C)(C)O)n2)c(OC)cc1N1CC[C@@H](N(C)C)C1 [Compound 74, (R)-N-(5-(5-chloro-4-(5-chloro-4-fluoro-2-(2-hydroxypropan-2-yl)phenylamino)pyrimidin-2-ylamino)-2-(3-(dimethylamino)pyrrolidin-1-yl)-4-methoxyphenyl) acrylamide] | 65.1 | 34.4 | 0.4 | 52.6 | 133 | 76.8 | 86.6 | 6 | 155 | 43 | 3.9 | 9.1 | 82 | > 3000 |  |  |  | 
7 | C=CC(=O)Nc1cc(Nc2ncnc(Nc3cc(C4CC4)c(F)cc3C(C)(C)O)n2)c(OC)cc1N(C)CCN(C)C [Compound 75, N-(5-(4-(5-cyclopropyl-4-fluoro-2-(2-hydroxypropan-2-yl)phenylamino)-1,3,5-triazin-2-ylamino)-2-((2-(dimethylamino)ethyl)(methyl)amino)-4-methoxyphenyl)acrylamide] | 27.9 | 18.5 | 3.7 | 10.8 | 42.6 | 73 | 90.6 | 19.2 | 29.9 | 11.6 | 45.5 | 133 | 250 | > 3000 |  |  |  | 
8 | C=CC(=O)Nc1cc(Nc2nccc(Nc3cc(Cl)c(F)cc3C(C)(C)O)n2)c(OC)cc1N1CC(F)(F)C[C@@H]1CN(C)C [Compound 82, (R)-N-(5-(4-(5-chloro-4-fluoro-2-(2-hydroxypropan-2-yl)phenylamino)pyrimidin-2-ylamino)-2-(2-((dimethylamino)methyl)-4,4-difluoropyrrolidin-1-yl)-4-methoxyphenyl)acrylamide] | 13.8 | 17.2 | 0.9 | 7 | 97.8 | 35.8 | 77.7 | 3.6 | 82.4 | 42 | 76.1 | 203 | 310 | > 3000 |  |  |  | 
